In PubChem BioAssay (NCI):
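Briefly, cells in 96-well plates were exposed to five compound concentrations for 48 h, and endpoints were estimated by linear interpolation. GI50 = concentration required for 50% inhibition of growth. The concentration for full growth arrest is given as TGI.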

Experiments:
Assay in all cases: growth of human tumour cells (NCI), 48 h
NCI/ADR-RES ovarian = system: NCI/ADR-RES ovarian
UO-31 renal = system: UO-31 renal
UACC-62 melanoma = system: UACC-62 melanoma
NCI-H460 lung = system: NCI-H460 lung
SNB-19 CNS = system: SNB-19 CNS
HCT-15 colon = system: HCT-15 colon
NCI-H522 lung = system: NCI-H522 lung
CCRF-CEM leukemia = system: CCRF-CEM leukemia
SNB-75 CNS = system: SNB-75 CNS
M14 melanoma = system: M14 melanoma
COLO 205 colon = system: COLO 205 colon
SK-MEL-28 melanoma = system: SK-MEL-28 melanoma
TK-10 renal = system: TK-10 renal
MDA-MB-435 = system: MDA-MB-435
HL-60(TB) leukemia = system: HL-60(TB) leukemia
SK-OV-3 ovarian = system: SK-OV-3 ovarian
SF-268 CNS = system: SF-268 CNS
HT29 colon = system: HT29 colon
KM12 colon = system: KM12 colon
HCC-2998 colon = system: HCC-2998 colon
HS 578T breast = system: HS 578T breast
U251 CNS = system: U251 CNS
HCT-116 colon = system: HCT-116 colon
OVCAR-8 ovarian = system: OVCAR-8 ovarian
HOP-62 NSCLC = system: HOP-62 NSCLC
PC-3 prostate = system: PC-3 prostate
SK-MEL-2 melanoma = system: SK-MEL-2 melanoma
NCI-H226 lung = system: NCI-H226 lung
BT-549 breast = system: BT-549 breast
EKVX NSCLC = system: EKVX NSCLC
CAKI-1 renal = system: CAKI-1 renal
SN12C renal = system: SN12C renal
T-47D breast = system: T-47D breast
ACHN renal = system: ACHN renal
OVCAR-5 ovarian = system: OVCAR-5 ovarian
RXF 393 renal = system: RXF 393 renal
786-0 renal = system: 786-0 renal
MDA-MB-231 breast = system: MDA-MB-231 breast
A549 NSCLC = system: A549 NSCLC
SF-539 CNS = system: SF-539 CNS
MCF7 breast = system: MCF7 breast
MALME-3M melanoma = system: MALME-3M melanoma
HOP-92 NSCLC = system: HOP-92 NSCLC
NCI-H23 lung = system: NCI-H23 lung
K-562 leukemia = system: K-562 leukemia
OVCAR-4 ovarian = system: OVCAR-4 ovarian
UACC-257 melanoma = system: UACC-257 melanoma
MOLT-4 leukemia = system: MOLT-4 leukemia
SW-620 colon = system: SW-620 colon

COc1ccc(-c2ccc(/C=N/n3c(COc4ccccc4Cl)nn(CN4CCN(C)CC4)c3=S)o2)c([N+](=O)[O-])c1
GI50 (NCI/ADR-RES ovarian): 18.5 µM
TGI (NCI/ADR-RES ovarian): 41.6 µM
GI50 (UO-31 renal): 30.1 µM
TGI (UO-31 renal): > 100 µM
GI50 (UACC-62 melanoma): 19.2 µM
TGI (UACC-62 melanoma): 44.9 µM
GI50 (NCI-H460 lung): 14.7 µM
TGI (NCI-H460 lung): 37.6 µM
GI50 (SNB-19 CNS): 27.1 µM
TGI (SNB-19 CNS): > 100 µM
GI50 (HCT-15 colon): 17.4 µM
TGI (HCT-15 colon): 38.3 µM
GI50 (NCI-H522 lung): 29.5 µM
TGI (NCI-H522 lung): > 100 µM
GI50 (CCRF-CEM leukemia): 21.7 µM
TGI (CCRF-CEM leukemia): > 100 µM
GI50 (SNB-75 CNS): 20.3 µM
TGI (SNB-75 CNS): 77.3 µM
GI50 (M14 melanoma): 17.7 µM
TGI (M14 melanoma): 34.2 µM
GI50 (COLO 205 colon): 24.4 µM
TGI (COLO 205 colon): 60.3 µM
GI50 (SK-MEL-28 melanoma): 24.5 µM
TGI (SK-MEL-28 melanoma): 69.4 µM
GI50 (TK-10 renal): 12.9 µM
TGI (TK-10 renal): 45.4 µM
GI50 (MDA-MB-435): 18.3 µM
TGI (MDA-MB-435): 40.9 µM
GI50 (HL-60(TB) leukemia): 32.8 µM
TGI (HL-60(TB) leukemia): 65.7 µM
GI50 (SK-OV-3 ovarian): 30.6 µM
TGI (SK-OV-3 ovarian): 83.8 µM
GI50 (SF-268 CNS): 17.5 µM
TGI (SF-268 CNS): 45.1 µM
GI50 (HT29 colon): 23.5 µM
TGI (HT29 colon): 55.9 µM
GI50 (KM12 colon): 11.9 µM
TGI (KM12 colon): 31.7 µM
GI50 (HCC-2998 colon): 14.5 µM
TGI (HCC-2998 colon): 27.7 µM
GI50 (HS 578T breast): 38.7 µM
TGI (HS 578T breast): 81.4 µM
GI50 (U251 CNS): 13.2 µM
TGI (U251 CNS): 27.8 µM
GI50 (HCT-116 colon): 16.1 µM
TGI (HCT-116 colon): 29.8 µM
GI50 (OVCAR-8 ovarian): 17.3 µM
TGI (OVCAR-8 ovarian): 42.2 µM
GI50 (HOP-62 NSCLC): 21.7 µM
TGI (HOP-62 NSCLC): 37 µM
GI50 (PC-3 prostate): 15.3 µM
TGI (PC-3 prostate): 58.2 µM
GI50 (SK-MEL-2 melanoma): 31.6 µM
TGI (SK-MEL-2 melanoma): 83.3 µM
GI50 (NCI-H226 lung): 15.6 µM
TGI (NCI-H226 lung): 43.5 µM
GI50 (BT-549 breast): 17.2 µM
TGI (BT-549 breast): 43 µM
GI50 (EKVX NSCLC): 21.5 µM
TGI (EKVX NSCLC): 70.5 µM
GI50 (CAKI-1 renal): 5.19 µM
TGI (CAKI-1 renal): 14.6 µM
GI50 (SN12C renal): 17.9 µM
TGI (SN12C renal): 35.2 µM
GI50 (T-47D breast): 22.1 µM
TGI (T-47D breast): 77.1 µM
GI50 (ACHN renal): 23.1 µM
TGI (ACHN renal): 50.1 µM
GI50 (OVCAR-5 ovarian): 21.6 µM
TGI (OVCAR-5 ovarian): 46.6 µM
GI50 (RXF 393 renal): 10.4 µM
TGI (RXF 393 renal): 25 µM
GI50 (786-0 renal): 17.4 µM
TGI (786-0 renal): 39.3 µM
GI50 (MDA-MB-231 breast): 14.6 µM
TGI (MDA-MB-231 breast): 37.5 µM
GI50 (A549 NSCLC): 14.1 µM
TGI (A549 NSCLC): 36.7 µM
GI50 (SF-539 CNS): 19.7 µM
TGI (SF-539 CNS): 39.2 µM
GI50 (MCF7 breast): 12.9 µM
TGI (MCF7 breast): 33.8 µM
GI50 (MALME-3M melanoma): 20.9 µM
TGI (MALME-3M melanoma): 49.2 µM
GI50 (HOP-92 NSCLC): 21 µM
TGI (HOP-92 NSCLC): 70.7 µM
GI50 (NCI-H23 lung): 16.3 µM
TGI (NCI-H23 lung): 31 µM

Cc1ccc(C2NC(=S)NC3=C2CCOc2c3ccc3ccccc23)cc1 (stereo unspecified)
GI50 (NCI/ADR-RES ovarian): 96.5 µM
TGI (NCI/ADR-RES ovarian): > 100 µM
GI50 (UO-31 renal): > 100 µM
TGI (UO-31 renal): > 100 µM
GI50 (NCI-H460 lung): 64.8 µM
TGI (NCI-H460 lung): > 100 µM
GI50 (SNB-19 CNS): > 100 µM
TGI (SNB-19 CNS): > 100 µM
GI50 (HCT-15 colon): > 100 µM
TGI (HCT-15 colon): > 100 µM
GI50 (NCI-H522 lung): > 100 µM
TGI (NCI-H522 lung): > 100 µM
GI50 (CCRF-CEM leukemia): > 100 µM
TGI (CCRF-CEM leukemia): > 100 µM
GI50 (SNB-75 CNS): > 100 µM
TGI (SNB-75 CNS): > 100 µM
GI50 (M14 melanoma): 79 µM
TGI (M14 melanoma): > 100 µM
GI50 (COLO 205 colon): 9.64 µM
TGI (COLO 205 colon): > 100 µM
GI50 (SK-MEL-28 melanoma): 57.4 µM
TGI (SK-MEL-28 melanoma): > 100 µM
GI50 (TK-10 renal): > 100 µM
TGI (TK-10 renal): > 100 µM
GI50 (MDA-MB-435): 2.78 µM
TGI (MDA-MB-435): > 100 µM
GI50 (HL-60(TB) leukemia): 5.86 µM
TGI (HL-60(TB) leukemia): > 100 µM
GI50 (SK-OV-3 ovarian): > 100 µM
TGI (SK-OV-3 ovarian): > 100 µM
GI50 (SF-268 CNS): 96 µM
TGI (SF-268 CNS): > 100 µM
GI50 (HT29 colon): 8 µM
TGI (HT29 colon): > 100 µM
GI50 (KM12 colon): 8.25 µM
TGI (KM12 colon): > 100 µM
GI50 (HCC-2998 colon): 10.8 µM
TGI (HCC-2998 colon): > 100 µM
GI50 (HS 578T breast): > 100 µM
TGI (HS 578T breast): > 100 µM
GI50 (U251 CNS): > 100 µM
TGI (U251 CNS): > 100 µM
GI50 (HCT-116 colon): > 100 µM
TGI (HCT-116 colon): > 100 µM
GI50 (OVCAR-8 ovarian): > 100 µM
TGI (OVCAR-8 ovarian): > 100 µM
GI50 (HOP-62 NSCLC): > 100 µM
TGI (HOP-62 NSCLC): > 100 µM
GI50 (PC-3 prostate): 22.2 µM
TGI (PC-3 prostate): > 100 µM
GI50 (SK-MEL-2 melanoma): > 100 µM
TGI (SK-MEL-2 melanoma): > 100 µM
GI50 (NCI-H226 lung): > 100 µM
TGI (NCI-H226 lung): > 100 µM
GI50 (CAKI-1 renal): 3.07 µM
TGI (CAKI-1 renal): 11.7 µM
GI50 (SN12C renal): > 100 µM
TGI (SN12C renal): > 100 µM
GI50 (T-47D breast): 35.7 µM
TGI (T-47D breast): > 100 µM
GI50 (ACHN renal): 44 µM
TGI (ACHN renal): > 100 µM
GI50 (OVCAR-5 ovarian): > 100 µM
TGI (OVCAR-5 ovarian): > 100 µM
GI50 (RXF 393 renal): 4.83 µM
TGI (RXF 393 renal): > 100 µM
GI50 (K-562 leukemia): 4.36 µM
TGI (K-562 leukemia): > 100 µM
GI50 (786-0 renal): > 100 µM
TGI (786-0 renal): > 100 µM
GI50 (MDA-MB-231 breast): 26.3 µM
TGI (MDA-MB-231 breast): > 100 µM
GI50 (OVCAR-4 ovarian): 29.4 µM
TGI (OVCAR-4 ovarian): > 100 µM
GI50 (A549 NSCLC): > 100 µM
TGI (A549 NSCLC): > 100 µM
GI50 (SF-539 CNS): > 100 µM
TGI (SF-539 CNS): > 100 µM
GI50 (UACC-257 melanoma): > 100 µM
TGI (UACC-257 melanoma): > 100 µM
GI50 (MCF7 breast): 32.4 µM
TGI (MCF7 breast): > 100 µM
GI50 (MALME-3M melanoma): 2.98 µM
TGI (MALME-3M melanoma): 7.73 µM
GI50 (MOLT-4 leukemia): 7.97 µM
TGI (MOLT-4 leukemia): > 100 µM
GI50 (HOP-92 NSCLC): 39.8 µM
TGI (HOP-92 NSCLC): > 100 µM
GI50 (NCI-H23 lung): > 100 µM
TGI (NCI-H23 lung): > 100 µM

Cn1nc(/C=C\C(=O)N2CC(CCl)c3c2cc(N)c2ccccc32)cc1/C=C/C(=O)N1CC(CCl)c2c1cc(N)c1ccccc21 (stereo unspecified)
TGI (NCI/ADR-RES ovarian): 0.295 µM
TGI (UACC-62 melanoma): < 0.01 µM
TGI (NCI-H460 lung): > 100 µM
TGI (SNB-19 CNS): 0.591 µM
TGI (CCRF-CEM leukemia): < 0.01 µM
TGI (M14 melanoma): < 0.01 µM
TGI (SK-OV-3 ovarian): > 100 µM
TGI (KM12 colon): > 100 µM
TGI (SW-620 colon): > 100 µM
TGI (HOP-62 NSCLC): 0.0411 µM
TGI (PC-3 prostate): 0.0596 µM
TGI (NCI-H226 lung): < 0.01 µM
TGI (BT-549 breast): < 0.01 µM
TGI (EKVX NSCLC): 0.0965 µM
TGI (CAKI-1 renal): < 0.01 µM
TGI (T-47D breast): > 100 µM
TGI (ACHN renal): > 100 µM
TGI (OVCAR-5 ovarian): < 0.01 µM
TGI (K-562 leukemia): > 100 µM
TGI (MDA-MB-231 breast): < 0.01 µM
TGI (OVCAR-4 ovarian): > 100 µM
TGI (MCF7 breast): > 100 µM
TGI (MOLT-4 leukemia): > 100 µM
